Biological target: CDK2/Cyclin E kinase (Homo sapiens, UniProt P24941)
Experiment: CDK2/Cyclin E Flashplate Assay: 96-Well Format
Type: biochemical
Conditions: streptavidin-coated flashplate; biotinylated-Rb peptide substrate 10 μM; 33P-ATP/ATP 1 μM; CDK2/Cyclin E 20 nM; 30 minutes at 30° C.; 1% DMSO
Description: Functional Measurements for Determination of IC50-Values
CDK2/Cyclin E Flashplate Assay: 96-Well Format
A 96-well streptavidin-coated flashplate was used to assay potency of compounds according formula (I) against CDK2/Cyclin E kinase. To carry out the assay, biotinylated-Rb peptide substrate (Biotin-[…]-OH) was solubilized at 1 mM in kinase buffer (Hepes 50 mM, NaCl 1 mM, MgCl2 5 mM pH 7.5) as a stock solution conserved at −20° C. in aliquots of 110 μl. The day of the experiment, an aliquot of this solution was thawed and diluted to 14.3 μM in kinase buffer, containing 1 mM dithiothreitol (DTT) added in the buffer at the same time.
70 μl of this solution was added in each well of the flashplate in order to achieve a final concentration of 10 μM (100 μl reactionnal volume). Serial dilutions of inhibitors were prepared in DMSO from 10 mM stock solutions in order to achieve 1000 μM, 333.3 μM, 111.1 μM, 37.03 μM, 12.35 μM, 4.11 μM and 1.37 μM and all were rediluted in kinase buffer+DTT in order to achieve 100 μM, 33.3 μM, 11.1 μM, 3.7 μM, 1.24 μM, 0.41 μM and 0.14 μM in DMSO 10% buffer (vol/vol). 10 μl of each, of these solutions (or 10 μl of buffer+DTT for controls) were transferred to the testplate wells in order to achieve 10 μM, 3.33 μM, 1.11 μM, 0.37 μM, 0.12 μM, 0.04. μM and 0.01 μM as final concentrations, 1% DMSO (vol/vol). In each well, 10 μl of a solution of a mix of ^33PyATP/ATP were added in order to achieve 1 μM final concentration and a total of 1 μCi. The kinase reaction was initiated by addition of 10 μl of a solution at 200 nM of CDK2/Cyclin E in kinase buffer+DTT (or buffer+DTT for blanks) in order to achieve 20 nM final concentration. After addition of each reagent, the test-plate was shakened. The plates were incubated 30 minutes at 30° C. with a shaking at 650 rpm. At the end of the incubation, the plates were washed 3 times with 300 μl of PBS (without calcium and magnesium) per well. The incorporation of ^33P to the peptide was measured by scintillation counting.

How did the IC50 turn out when `COc1ccc(CNC(=O)c2cc(-c3ccncc3)n[nH]c2=O)cc1` [Example 83, 3-Oxo-6-pyridin-4-yl-2,3-dihydro-pyridazine-4-carboxylic acid 4-methoxy-benzylamide;compound with trifluoro-acetic acid] was run?
The IC50 was 552 nM.

How did the IC50 turn out when `COc1cc(-c2cc(C(=O)NCc3ccc(Cl)cc3)c(=O)[nH]n2)ccc1O` [Example 41, 6-(4-Hydroxy-3-methoxy-phenyl)-3-oxo-2,3-dihydro-pyridazine-4-carboxylic acid 4-chloro-benzylamide] was run?
The IC50 was 147 nM.

For `O=C(NCCc1ccccc1Cl)c1cc(-c2ccncc2)n[nH]c1=O` [Example 103, 3-Oxo-6-pyridin-4-yl-2,3-dihydro-pyridazine-4-carboxylic acid [2-(2-chloro-phenyl)-ethyl]-amide; compound withtrifluoro-acetic acid], which IC50 is on record?
The IC50 was 164 nM.

Which IC50 does the source give for `O=C(NCc1ccc(F)c(Br)c1)c1cc(-c2ccncc2)n[nH]c1=O` [Example 93, 3-Oxo-6-pyridin-4-yl-2,3-dihydro-pyridazine-4-carboxylic acid 3-bromo-4-fluoro-benzylamide;compound with trifluoro-acetic acid] here?
Its IC50 is 349 nM.

With `COc1cc(-c2cc(C(=O)NCCCc3cccnc3)c(=O)[nH]n2)ccc1O` [Example 49, 6-(4-Hydroxy-3-methoxy-phenyl)-3-oxo-2,3-dihydro-pyridazine-4-carboxylic acid (3-pyridin-3-yl-propyl)-amide] as the compound, how does the IC50 read?
Its IC50 is 175 nM.

`O=C(NCCCc1cccnc1)c1cc(-c2ccc(O)cc2)n[nH]c1=O` [Example 164, 6-(4-Hydroxy-phenyl)-3-oxo-2,3-dihydro-pyridazine-4-carboxylicacid (3-pyridin-3-yl-propyl)-amide] was tested. Which IC50 did it give?
The IC50 was 133 nM.

— patent US7462613B2, “Pyridazinone derivatives as pharmaceuticals and pharmaceutical compositions containing them” (SANOFI-AVENTIS Deutschland GmbH, priority 2002, dated 2008)
